Reference: patent US7335756B2, “Retinoic acid metabolizing cytochrome P450” (Cytochroma Inc., priority 2001, dated 2008)
Several values for one entry are separate records, joined by “and”; a condition that tells them apart may be missing. Identical values can stand only once. Like-named read-outs stand apart in the source and are kept apart here.

Assays:
P450RAI-3 [1] = molecular target: T1, P450RAI-3 (Homo sapiens, UniProt Q6V0L0, F447L); assay: [3H]-RA-metabolism inhibition (substrate competition) in P450RAI-3 stable transfected Hela cells; format: cell-based; set-up: expressed in transfected cells; details: 2 nM [3H]-RA
T1 sequence (Q6V0L0 1-522 F447L): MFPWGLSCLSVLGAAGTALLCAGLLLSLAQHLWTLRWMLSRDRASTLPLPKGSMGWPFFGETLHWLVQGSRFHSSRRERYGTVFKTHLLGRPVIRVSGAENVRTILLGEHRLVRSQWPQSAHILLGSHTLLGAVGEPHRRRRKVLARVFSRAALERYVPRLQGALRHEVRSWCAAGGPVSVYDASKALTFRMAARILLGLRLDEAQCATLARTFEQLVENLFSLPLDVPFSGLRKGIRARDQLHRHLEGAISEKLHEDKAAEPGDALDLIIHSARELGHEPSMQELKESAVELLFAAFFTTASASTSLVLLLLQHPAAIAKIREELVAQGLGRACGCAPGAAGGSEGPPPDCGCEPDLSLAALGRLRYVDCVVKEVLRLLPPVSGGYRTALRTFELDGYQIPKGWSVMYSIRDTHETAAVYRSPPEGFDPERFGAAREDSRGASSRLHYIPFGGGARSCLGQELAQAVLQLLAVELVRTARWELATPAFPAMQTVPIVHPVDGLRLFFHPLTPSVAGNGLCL
Procedure: (§1) The purpose of these experiments is to determine the specific substrates for P450RAI-3. […] The RA metabolism reaction was started by the addition of 50 ul of [^3H]-RA solution (20000 cpm, 2 nM final concentration). Cells were incubated for 3 hours in a humidified CO2 incubator at 37 degrees Celsius. The reaction was stopped by the addition of 5 ul of 10% acetic acid. Organic and aqueous soluble radio-labelled metabolites were extracted using the Bligh-Dyer procedure.

CYP26-B [2] = molecular target: T2, CYP26-B (Homo sapiens, UniProt Q9NR63); assay: [3H]-RA-metabolism inhibition in mammalian microsomes from stable Hela-CYP26-B cells; format: biochemical; set-up: made in house; host or cells: HeLa cells stably expressing CYP26-B, microsomal fraction
T2 sequence (Q9NR63 1-512): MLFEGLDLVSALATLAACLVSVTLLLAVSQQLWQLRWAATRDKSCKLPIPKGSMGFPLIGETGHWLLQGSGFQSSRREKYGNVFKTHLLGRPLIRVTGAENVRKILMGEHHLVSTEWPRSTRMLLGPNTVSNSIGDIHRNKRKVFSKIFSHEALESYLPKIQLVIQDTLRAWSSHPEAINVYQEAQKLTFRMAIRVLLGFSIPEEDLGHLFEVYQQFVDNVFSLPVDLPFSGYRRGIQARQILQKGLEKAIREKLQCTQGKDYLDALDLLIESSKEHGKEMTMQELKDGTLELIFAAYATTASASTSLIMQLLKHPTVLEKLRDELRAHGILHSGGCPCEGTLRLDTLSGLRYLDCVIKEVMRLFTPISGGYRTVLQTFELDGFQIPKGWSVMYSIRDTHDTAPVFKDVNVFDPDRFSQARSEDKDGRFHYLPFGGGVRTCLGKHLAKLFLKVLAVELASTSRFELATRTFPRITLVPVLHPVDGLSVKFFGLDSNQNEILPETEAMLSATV
Procedure: (§2) RA-metabolism activity was assessed using RA-metabolism microsomes-based assay and Bligh Dyer extraction as follows: Using an automatic repeating-pipette, gently thawed and homogenized microsomes were plated in a 48-well plate in final volume of 150 μl of storage buffer containing 0.5 mg/ml BSA. At indicated concentration 2 μl of compound solution was added to the assay and 2 μl of DMSO was added to MS control (quadruplet) and No-MS control. 50 μl of [^3H]-RA solution (30,000 cpm, 2 nM final concentration) was added. […] After 1-hour incubation the reaction was stopped by adding 5 μl of 10% acetic acid. Organic and aqueous soluble radio-labelled metabolites were extracted using the Bligh-Dyer procedure. Saturated activity obtained in presence of NADPH at 5 μg of microsomes, FIG. 14.
(§3) Microsomes prepared from either stable Hela-CYP26-B or transient P450RAI-3-transfected Cos cells were used.

CYP26-B [3] = molecular target: T2, CYP26-B; assay: [3H]-RA-metabolism inhibition, transient Cos-CYP26-B cell-based assay; details: at lower concentrations
P450RAI-3 [4] = molecular target: T1, P450RAI-3; assay: [3H]-RA-metabolism inhibition, transient Cos-P450RAI-3 cell-based assay; set-up: expressed in transfected cells; host or cells: COS-1 (transient, pcDNA-P450RAI-3, Fugene); details: at lower concentrations
Procedure: as §1

P450RAI-3 [5] = molecular target: T1, P450RAI-3; assay: LC/MS analysis of ATRA and 9-cis-RA metabolism in Hela-P450RAI-3 stable cells; details: 5 hours
Procedure: After 5 hours incubation at 37° C., cells were acidified with acetic acid and total retinoids were extracted using Ethyl acetate method. The organic upper layer was pooled and evaporated in speed-vacuum, and dried residues were dissolved in HPLC mobile solvent and analyzed in LC/MS.
The HPLC system consisted of a waters alliance 2690 separations module. Chromatography was obtained on an Eclipse X DB-C18 reverse phase column (5 um, 2.1×150 mm from HP). A gradient elution program was used using acetonitrile, water and 10% acetic acid. The flow was held at 0.2 ml/min.
Mass Spectrometry condition used for this work consisted of a Micro-mass Quatro Ultima Tandem triple quadruple mass spectrometer equipped with electrospray interface (ESI) and operated in a negative mode.

CYP26-B [6] = molecular target: T2, CYP26-B; assay: ATRA and 9-cis-RA binding assay, CYP26-B microsomes; set-up: made in house; host or cells: HeLa cells stably expressing CYP26-B, microsomal fraction; details: substrate 0.05 nM to 1000 nM, linear, Kd not determinable
P450RAI-3 [7] = molecular target: T1, P450RAI-3; assay: ATRA / 9-cis-RA metabolism in pcDNA-P450RAI-3 transfected Cos-1 cells (Bligh-Dyer, HPLC); format: cell-based; set-up: expressed in transfected cells; host or cells: COS-1 (transient, pcDNA-P450RAI-3, Fugene); details: 2 nM radio-labeled substrate, 3 hours
Procedure: Mammalian Cos-1 cells were transfected with either pcDNA-P450RAI-3 or pcDNA-control vector using Fugene™ (Roche diagnostic) according to the manufacturers directions. After 48 hours post-tranfection, cells were washed with PBS and assessed for ATRA-metabolism activity as described Briefly, transfected cells were incubated with radio-labeled ^3[H]-ATRA (18000 cpm, 2 nM) for 3 hours. Organic and Water-soluble metabolites were extracted using Bligh-Dyer procedure and radioactivity counted (FIG. 10).
HPLC analysis of the organic metabolites: the Bligh-Dyer organic button-layer was dried out and residues were suspended in HPLC solvent and then analyzed by HPLC as described in [White et al, PNAS, vol 97, pg 6403-6408], FIG. 11.
Mammalian Cos-1 cells were transfected with either pcDNA-P450RAI-3 or pcDNA-control vector according to the manufacturers directions using Fugene (Roche). After 48 hours post-tranfection, cells were washed with PBS and assessed for 9-cis-RA-metabolism activity as described using Bligh-Dyer procedure. Briefly, transfected cells were incubated with radio-labeled ^3[H]-9-cis-RA (38000 cpm, 2 nM) for 3 hours. Organic and Water-soluble metabolites were extracted using Bligh-Dyer procedure and radioactivity counted, FIG. 19.

CYP26-A = molecular target: T3, CYP26-A (Homo sapiens, UniProt O43174, E104D/H105D/L421A/M420S); assay: 9-cis-RA binding assay, CYP26-A; details: substrate 0.05 nM to 1000 nM, linear, Kd not determinable
T3 sequence (O43174 1-497 E104D/H105D/M420S/L421A): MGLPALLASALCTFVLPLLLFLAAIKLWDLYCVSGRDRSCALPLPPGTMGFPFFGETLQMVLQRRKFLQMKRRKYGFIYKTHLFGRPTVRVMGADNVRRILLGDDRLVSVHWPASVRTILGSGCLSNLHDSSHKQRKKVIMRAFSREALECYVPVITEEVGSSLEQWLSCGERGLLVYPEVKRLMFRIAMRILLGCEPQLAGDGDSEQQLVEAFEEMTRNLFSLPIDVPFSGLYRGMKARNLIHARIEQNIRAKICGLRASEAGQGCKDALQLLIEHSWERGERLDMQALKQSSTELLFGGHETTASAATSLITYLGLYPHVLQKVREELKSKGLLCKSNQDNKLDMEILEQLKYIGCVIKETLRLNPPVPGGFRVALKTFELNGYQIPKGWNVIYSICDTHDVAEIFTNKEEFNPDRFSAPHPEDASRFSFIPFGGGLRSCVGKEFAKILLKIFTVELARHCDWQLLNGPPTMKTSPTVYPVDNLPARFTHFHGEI

P450RAI-3 [8] = molecular target: T1, P450RAI-3; assay: ATRA and 9-cis-RA binding assay, Sf9-Bac-P450RAI-3 insect microsomes; details: for Kd: Table 4 prints no unit
CYP26-B [9] = molecular target: T2, CYP26-B; assay: [3H]-RA-metabolism inhibition in Sf9-Bac-CYP26-B insect microsomes; format: biochemical; details: at much higher concentrations
Procedure: as §2

P450RAI-3 [10] = molecular target: T1, P450RAI-3; assay: [3H]-RA-metabolism inhibition in Sf9-Bac-P450RAI-3 insect microsomes; format: biochemical; details: 2 nM [3H]-RA, NADPH, 1 hour, read-out: ID50 (nM) Sf9-P450RAI-3
Procedure: Microsomes from P450RAI-3 and CYP26B infected Sf-9 cells were made as follows: exponentially growing cells were harvested, washed with ice-cold PBS, counted then homogenized and sonicated in lysis buffer containing protease inhibitors cocktail (10^8 cells par 5 ml lyses buffer). Since P450RAI-3 is a microsomal cytochrome, it preferably uses NADPH cytochromic P450 reductase and a flavoprotein for activity. The microsomes were isolated by differential centrifugations (10 min at 800×g, than 10 min at 10,000×g and finally the postmitichondirial supernatant was centrifuged at 100,000×g for 60 min using ultracentrifuge (Beckman). The microsomal pellet was isolated and homogenized gently in the storage buffer containing protease inhibitors cocktail. Protein concentration in the microsomal preparation was determined using a […] reaction assay kit with BSA as standards (Pierce). The absorbance at 562 nm of standards (BSA at 1, 0.5, 0.25, 0.125, and 0.0625 mg/ml) and 3 dilutions of microsomes samples (⅕, 1/10 and 1/20) was determined using an automatic microplate reader (μQuant, BioTek instruments Inc.). The protein concentration directly calculated by the software (KCJunior). […] Microsomes were assessed for P450 content by carbon monoxide assay and total P450 content was determined at 3 nmol/ml. […]

P450RAI-3 [11] = molecular target: T1, P450RAI-3; assay: [3H]-RA-metabolism inhibition in mammalian microsomes from transient P450RAI-3-transfected Cos cells; format: biochemical; set-up: expressed in transfected cells; host or cells: COS-1 (transient, pcDNA-P450RAI-3, Fugene)
Procedure: RA-metabolism activity was assessed using RA-metabolism microsomes-based assay and Bligh Dyer extraction as follows: Using an automatic repeating-pipette, gently thawed and homogenized microsomes were plated in a 48-well plate in final volume of 150 μl of storage buffer containing 0.5 mg/ml BSA. At indicated concentration 2 μl of compound solution was added to the assay and 2 μl of DMSO was added to MS control (quadruplet) and No-MS control. 50 μl of [^3H]-RA solution (30,000 cpm, 2 nM final concentration) was added. The microsomes assay with the compounds and the [^3H]-ATRA were incubated first for 10 min at 37° C., and then the reaction started by adding 20 μl of NADPH solution (or 1 mM final). After 1-hour incubation the reaction was stopped by adding 5 μl of 10% acetic acid. Organic and aqueous soluble radio-labelled metabolites were extracted using the Bligh-Dyer procedure. Saturated activity obtained in presence of NADPH at 5 μg of microsomes, FIG. 14.
as §3

## CC1=C(/C=C/C(C)=C/C=C/C(C)=C/CO)C(C)(C)CCC1 [Retinol]
P450RAI-3 [1]
  substrate for CYP26-C: not substrates

## CC1=C(/C=C/C(C)=C/C=C/C(C)=C\C(=O)O)C(C)(C)CCC1 [13-cis-RA]
CYP26-B [2]
  competition for CYP26B: did not compete at lower concentrations
CYP26-B [3]
  competition / inhibition of CYP26-B: not a substrate
P450RAI-3 [4]
  competition / inhibition of P450RAI-3: not a substrate

## CC1=C(/C=C/C(C)=C\C=C\C(C)=C\C(=O)O)C(C)(C)CCC1 [9-cis-RA, 9-cis-retnoic acid]
P450RAI-3 [5]
  metabolites formed by P450RAI-3: hydroxy and oxo-metabolites
CYP26-B [6]
  binding to CYP26-B: weak binding
P450RAI-3 [4]
  competition / inhibition of P450RAI-3: competed only for P450RAI-3
P450RAI-3 [7]
  metabolism by P450RAI-3: converted 9-cis-RA to the hydoxy and oxo-metabolites and to more polar water-soluble metabolites
CYP26-A
  binding to CYP26-A: weak binding
P450RAI-3 [8]; read-out: Kd, substrate binding to P450RAI-3, insect microsomes, nM
  Kd: 69 nM
P450RAI-3 [8]; substrate 0.05 nM to 1000 nM
  binding to P450RAI-3 microsomes: Very good binding
CYP26-B [9]
  competition for CYP26-B: very weak 9-cis-RA competition

## CC1=C(/C=C/C(C)=C/C=C/C(C)=C/C=O)C(C)(C)CCC1 [Retinal]
P450RAI-3 [1]
  substrate for CYP26-C: not substrates

## CC(=O)N1CCN(c2ccc(OCC3COC(Cn4ccnc4)(c4ccc(Cl)cc4Cl)O3)cc2)CC1 (stereo not drawn) [Ketoconazole, ketoconazole]
P450RAI-3 [1]; read-out: ID50, competition for P450RAI-3 [3H]-RA metabolism
  IC50: 70 µM
CYP26-B [3]
  competition / inhibition of CYP26-B: inhibited
P450RAI-3 [4]
  competition / inhibition of P450RAI-3: weak inhibitor
P450RAI-3 [8]; Kd, competition of ATRA binding to P450RAI-3, ketoconazole up to 100 μM, μM
  Kd: 70500 nM and 75000 nM
P450RAI-3 [8]; read-out: inhibition of ATRA binding to P450RAI-3
  inhibition at 10 µM: 15%
P450RAI-3 [10]
  IC50: > 10000 nM
P450RAI-3 [11]; read-out: ID50 (nM) P450RAI-3
  IC50: 72000 nM
P450RAI-3 [11]; read-out: ID50 P450RAI-3
  IC50: 70000 nM
